PMC8508374, “In Silico Identification and Evaluation of Natural Products as Potential Tumor Necrosis Factor Function Inhibitors Using Advanced Enalos Asclepios KNIME Nodes” (International Journal of Molecular Sciences, 2021)

Target: T1, TNF (TNF-TNFR1 binding) (Homo sapiens, UniProt P01375)
T1 construct: soluble TNF and its receptor TNFR1 in sandwich ELISA; human TNF-alpha (Peprotech) is printed for the cell assays; with Tumor necrosis factor receptor superfamily member 1A
Test: TNF-TNFR1 sandwich ELISA, inhibition of binding
Conditions: inhibition of TNF-TNFR1 interaction

T1 sequence (P01375 77-233): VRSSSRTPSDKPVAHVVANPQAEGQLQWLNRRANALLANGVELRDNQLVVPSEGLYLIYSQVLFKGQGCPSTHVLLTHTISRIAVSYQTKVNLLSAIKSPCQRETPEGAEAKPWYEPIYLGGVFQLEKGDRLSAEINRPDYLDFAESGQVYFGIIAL
T1 sequence (P19438 30-455 partner): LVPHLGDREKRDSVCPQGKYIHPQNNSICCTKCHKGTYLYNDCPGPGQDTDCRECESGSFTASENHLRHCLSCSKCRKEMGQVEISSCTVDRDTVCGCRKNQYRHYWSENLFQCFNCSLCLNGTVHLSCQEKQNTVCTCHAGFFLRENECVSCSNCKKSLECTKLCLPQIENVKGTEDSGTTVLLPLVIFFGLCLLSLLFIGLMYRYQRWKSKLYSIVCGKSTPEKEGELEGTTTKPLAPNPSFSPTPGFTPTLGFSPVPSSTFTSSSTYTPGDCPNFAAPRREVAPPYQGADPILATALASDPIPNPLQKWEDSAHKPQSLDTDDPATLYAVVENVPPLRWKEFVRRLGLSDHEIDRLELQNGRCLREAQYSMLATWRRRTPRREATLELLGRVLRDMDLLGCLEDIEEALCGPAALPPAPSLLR

Structure (SMILES): Oc1ccc([C@@H]2c3c(O)cc4c(c3C3C2c2c(c(O)cc5c2[C@H](c2cc(O)cc(O)c2)[C@@H](c2ccc(O)cc2)O5)[C@H]3c2ccccc2)[C@H](c2cc(O)cc(O)c2)[C@@H](c2ccc(O)cc2)C4)cc1 (stereo partly shown) [Nepalensinol B]
- IC50: 90.2 ± 19 µM
